In one test the test system is C. albicans ATCC 90028. The test can be described thus: Anti-Fungal Activity Assay (broth microtiter MIC), C. albicans. The conditions noted are these: Candida albicans, ATCC90028, 48 h, 3 replicates; MIC recorded at 48 h; read-out: MIC C. albicans ATCC 90028. The test is classed as cell-based, Candida albicans. The gist of the method: (§1)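 Susceptibility testing used direct colony suspensions in RPMI 1640+MOPS from Sabouraud dextrose agar grown at 35° C. Endpoints were visual MICs at 48 h under CLSI M27-A3 microtiter conditions, plus a 24 h reading for soraphen.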

In test [1] the test system is C. parapsilosis ATCC 22019. The test can be described thus: Anti-Fungal Activity Assay (broth microtiter MIC), C. parapsilosis. It is filed as cell-based, Candida parapsilosis. Conditions: Lodderomyces parapsilosis, ATCC22019, 48 h, 3 replicates; MIC recorded at 48 h; read-out: MIC C. parapsilosis ATCC 22019. The gist of the method:
as §1

For the next test, the target named is Human ACC2 (Homo sapiens, UniProt O00763). The test can be described thus: In vitro ACC2 inhibition assay (ADP-Glo), human ACC2. It is filed as biochemical. Conditions: 5 nM ACC2, 20 μM ATP, 20 μM acetyl-CoA.
Sequence of Human ACC2 (O00763 whole entry): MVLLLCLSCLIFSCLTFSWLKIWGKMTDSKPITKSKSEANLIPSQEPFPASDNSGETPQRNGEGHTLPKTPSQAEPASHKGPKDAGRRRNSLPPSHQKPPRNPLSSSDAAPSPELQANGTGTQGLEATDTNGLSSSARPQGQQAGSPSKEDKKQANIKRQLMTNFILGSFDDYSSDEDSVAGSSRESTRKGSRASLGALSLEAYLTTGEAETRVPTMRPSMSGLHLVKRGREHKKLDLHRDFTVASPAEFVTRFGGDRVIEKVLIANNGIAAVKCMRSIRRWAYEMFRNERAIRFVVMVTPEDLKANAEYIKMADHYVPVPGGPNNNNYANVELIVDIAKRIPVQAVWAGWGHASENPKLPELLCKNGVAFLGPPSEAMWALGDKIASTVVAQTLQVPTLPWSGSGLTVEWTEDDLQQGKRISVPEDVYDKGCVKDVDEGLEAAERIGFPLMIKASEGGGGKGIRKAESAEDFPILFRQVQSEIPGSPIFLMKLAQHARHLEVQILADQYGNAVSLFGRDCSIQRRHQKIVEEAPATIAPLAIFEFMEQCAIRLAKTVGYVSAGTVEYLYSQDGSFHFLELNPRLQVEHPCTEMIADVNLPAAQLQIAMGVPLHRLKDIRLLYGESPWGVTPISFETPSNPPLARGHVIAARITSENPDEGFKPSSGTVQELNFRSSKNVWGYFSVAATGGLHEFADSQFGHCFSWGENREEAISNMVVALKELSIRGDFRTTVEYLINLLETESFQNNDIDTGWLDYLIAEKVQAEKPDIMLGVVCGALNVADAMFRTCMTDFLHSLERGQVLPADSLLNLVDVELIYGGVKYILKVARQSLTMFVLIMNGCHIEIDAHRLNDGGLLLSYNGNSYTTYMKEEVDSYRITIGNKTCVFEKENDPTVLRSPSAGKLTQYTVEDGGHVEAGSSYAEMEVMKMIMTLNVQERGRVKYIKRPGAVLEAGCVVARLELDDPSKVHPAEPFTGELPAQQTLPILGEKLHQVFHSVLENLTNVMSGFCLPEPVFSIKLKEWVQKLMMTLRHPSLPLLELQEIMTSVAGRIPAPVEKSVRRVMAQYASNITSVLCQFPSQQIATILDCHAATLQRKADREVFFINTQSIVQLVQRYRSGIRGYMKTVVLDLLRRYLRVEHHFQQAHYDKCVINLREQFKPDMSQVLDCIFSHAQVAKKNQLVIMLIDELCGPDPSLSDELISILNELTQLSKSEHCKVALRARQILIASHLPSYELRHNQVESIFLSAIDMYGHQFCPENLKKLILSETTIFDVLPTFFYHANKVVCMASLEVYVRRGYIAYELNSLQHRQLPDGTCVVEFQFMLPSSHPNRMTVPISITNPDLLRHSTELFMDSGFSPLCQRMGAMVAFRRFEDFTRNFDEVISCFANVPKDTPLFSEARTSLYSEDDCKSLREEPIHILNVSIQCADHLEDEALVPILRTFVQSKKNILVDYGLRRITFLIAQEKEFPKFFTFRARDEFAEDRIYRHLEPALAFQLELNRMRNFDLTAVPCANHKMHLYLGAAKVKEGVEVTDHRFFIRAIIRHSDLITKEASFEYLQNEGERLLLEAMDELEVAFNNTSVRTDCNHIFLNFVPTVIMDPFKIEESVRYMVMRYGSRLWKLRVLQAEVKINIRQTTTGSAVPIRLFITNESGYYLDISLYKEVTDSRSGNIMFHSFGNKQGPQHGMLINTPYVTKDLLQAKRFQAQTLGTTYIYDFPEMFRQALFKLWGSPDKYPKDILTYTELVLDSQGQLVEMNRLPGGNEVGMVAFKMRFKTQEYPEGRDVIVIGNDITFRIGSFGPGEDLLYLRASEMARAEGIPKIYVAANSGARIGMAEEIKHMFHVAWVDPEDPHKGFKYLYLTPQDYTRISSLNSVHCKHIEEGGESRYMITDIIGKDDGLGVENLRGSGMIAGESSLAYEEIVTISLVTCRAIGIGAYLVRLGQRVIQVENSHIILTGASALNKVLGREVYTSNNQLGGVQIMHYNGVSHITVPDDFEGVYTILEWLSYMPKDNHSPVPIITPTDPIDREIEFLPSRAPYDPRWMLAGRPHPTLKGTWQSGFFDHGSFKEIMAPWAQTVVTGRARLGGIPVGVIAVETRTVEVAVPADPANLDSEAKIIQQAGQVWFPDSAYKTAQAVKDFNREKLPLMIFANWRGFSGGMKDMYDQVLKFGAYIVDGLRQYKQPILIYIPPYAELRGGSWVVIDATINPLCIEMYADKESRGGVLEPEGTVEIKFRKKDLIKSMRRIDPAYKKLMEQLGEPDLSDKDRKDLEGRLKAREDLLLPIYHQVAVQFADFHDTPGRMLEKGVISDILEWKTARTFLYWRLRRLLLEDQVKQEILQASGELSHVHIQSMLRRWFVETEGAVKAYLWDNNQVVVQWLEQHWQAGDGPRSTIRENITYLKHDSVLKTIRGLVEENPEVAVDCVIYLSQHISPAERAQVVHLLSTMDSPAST
A further test relates to C. krusei ATCC 6258. Put plainly: Anti-Fungal Activity Assay (broth microtiter MIC), C. krusei. The conditions noted are these: Pichia kudriavzevii, ATCC6258, 48 h, 3 replicates; MIC recorded at 48 h; read-out: MIC C. krusei ATCC 6258. The test is classed as cell-based, Candida krusei. The gist of the method:
as §1

In the next test the target is Fungal ACC2 (UniProt Q00955). The conditions noted are these: read-out: Fungal ACC2 (IC50, in vitro ACC2 inhibition).
Sequence of Fungal ACC2 (Q00955 whole entry): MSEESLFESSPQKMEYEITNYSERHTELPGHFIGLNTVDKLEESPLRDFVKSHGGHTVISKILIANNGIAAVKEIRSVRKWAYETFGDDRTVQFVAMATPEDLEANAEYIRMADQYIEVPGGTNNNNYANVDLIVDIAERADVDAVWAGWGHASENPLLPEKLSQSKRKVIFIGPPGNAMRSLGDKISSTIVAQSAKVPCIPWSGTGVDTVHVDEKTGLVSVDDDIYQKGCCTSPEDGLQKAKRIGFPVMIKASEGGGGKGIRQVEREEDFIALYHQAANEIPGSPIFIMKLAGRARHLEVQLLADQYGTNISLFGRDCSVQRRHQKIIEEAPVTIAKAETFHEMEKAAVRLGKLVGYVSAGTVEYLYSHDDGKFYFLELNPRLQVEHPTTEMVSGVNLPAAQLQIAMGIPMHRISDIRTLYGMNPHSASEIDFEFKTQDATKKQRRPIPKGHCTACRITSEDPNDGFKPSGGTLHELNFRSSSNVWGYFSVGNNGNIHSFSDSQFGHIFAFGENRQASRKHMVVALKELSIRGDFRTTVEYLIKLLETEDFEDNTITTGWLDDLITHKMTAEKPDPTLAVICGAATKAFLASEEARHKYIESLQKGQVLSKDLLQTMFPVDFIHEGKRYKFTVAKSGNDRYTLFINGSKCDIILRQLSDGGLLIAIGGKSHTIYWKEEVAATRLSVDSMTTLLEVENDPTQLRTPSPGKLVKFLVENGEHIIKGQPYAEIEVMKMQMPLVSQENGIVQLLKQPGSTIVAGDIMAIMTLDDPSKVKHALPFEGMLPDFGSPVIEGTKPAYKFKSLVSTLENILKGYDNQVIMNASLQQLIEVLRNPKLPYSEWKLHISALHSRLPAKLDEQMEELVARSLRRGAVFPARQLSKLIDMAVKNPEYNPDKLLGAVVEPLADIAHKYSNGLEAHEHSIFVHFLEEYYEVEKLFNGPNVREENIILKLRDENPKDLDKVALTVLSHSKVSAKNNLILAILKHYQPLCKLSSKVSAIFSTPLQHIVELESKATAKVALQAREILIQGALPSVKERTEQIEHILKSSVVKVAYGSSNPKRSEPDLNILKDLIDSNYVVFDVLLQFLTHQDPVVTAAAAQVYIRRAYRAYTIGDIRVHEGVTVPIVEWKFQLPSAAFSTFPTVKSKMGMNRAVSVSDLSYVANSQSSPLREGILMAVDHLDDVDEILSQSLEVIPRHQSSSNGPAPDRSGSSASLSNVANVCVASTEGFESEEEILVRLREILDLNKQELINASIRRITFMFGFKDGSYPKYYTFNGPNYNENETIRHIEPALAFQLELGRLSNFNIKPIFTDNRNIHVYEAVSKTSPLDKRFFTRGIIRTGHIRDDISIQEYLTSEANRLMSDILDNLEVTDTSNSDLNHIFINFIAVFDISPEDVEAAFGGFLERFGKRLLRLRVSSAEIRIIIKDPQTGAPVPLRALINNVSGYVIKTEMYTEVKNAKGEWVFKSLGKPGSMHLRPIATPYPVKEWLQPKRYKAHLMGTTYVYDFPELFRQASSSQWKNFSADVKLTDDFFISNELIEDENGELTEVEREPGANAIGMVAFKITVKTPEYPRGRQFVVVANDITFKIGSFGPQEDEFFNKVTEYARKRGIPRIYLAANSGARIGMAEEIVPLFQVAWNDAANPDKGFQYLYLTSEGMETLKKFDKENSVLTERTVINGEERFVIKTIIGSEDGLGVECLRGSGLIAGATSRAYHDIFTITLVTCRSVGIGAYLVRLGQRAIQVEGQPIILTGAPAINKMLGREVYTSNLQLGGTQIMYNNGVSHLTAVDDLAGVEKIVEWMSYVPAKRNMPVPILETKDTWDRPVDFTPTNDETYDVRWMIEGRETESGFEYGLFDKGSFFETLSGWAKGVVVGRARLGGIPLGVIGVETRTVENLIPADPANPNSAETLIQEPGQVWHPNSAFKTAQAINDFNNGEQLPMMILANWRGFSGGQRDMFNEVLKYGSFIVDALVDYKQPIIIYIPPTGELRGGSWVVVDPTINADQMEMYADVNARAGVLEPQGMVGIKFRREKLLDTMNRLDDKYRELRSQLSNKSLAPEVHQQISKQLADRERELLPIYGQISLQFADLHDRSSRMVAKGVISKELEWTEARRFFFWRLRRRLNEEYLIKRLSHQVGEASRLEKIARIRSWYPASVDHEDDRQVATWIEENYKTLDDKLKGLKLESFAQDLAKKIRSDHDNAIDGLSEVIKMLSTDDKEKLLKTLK

The structures appear in SMILES notation. Converted amounts (≈) assume the structure as drawn.

Turning to `COCCO[C@@H](Cn1c(=O)n([C@H]2CCN(C(C)C)C2=O)c(=O)c2c(C)c(-n3nccn3)sc21)c1cc(F)ccc1OC` [Compound I-104, 1-((R)-2-(5-fluoro-2-methoxyphenyl)-2-(2-methoxy-ethoxy)ethyl)-3-((S)-1-isopropyl-2-oxopyrrolidin-3-yl)-5-methyl-6-(2H-1,2,3-triazol-2-yl)thieno[2,3-d]pyrimidine-2,4(1H,3H)-dione], the MIC (in the test on C. albicans ATCC 90028; in test [1]; in the test with C. krusei ATCC 6258) was 2.1 to 4 µg/mL (≈ 3.5 to 6.66 µM) throughout. In addition, the values for the IC50 at Human ACC2 and on Fungal ACC2 were 10 to 100 nM and 0.7 to 2 nM, respectively.

As to `COc1ccc(F)cc1[C@H](Cn1c(=O)n([C@@H]2CCN(C)C2=O)c(=O)c2c(C)c(-n3nccn3)sc21)O[C@H]1C[C@@H](O)C1` [Compound I-183, 1-((R)-2-(5-fluoro-2-methoxyphenyl)-2-((1s, 3S)-3-hydroxycyclobutoxy)ethyl)-5-methyl-3-((R)-1-methyl-2-oxopyrrolidin-3-yl)-6-(2H-1,2,3-triazol-2-yl)thieno[2,3-d]pyrimidine-2,4(1H,3H)-dione], the minimal inhibitory concentration (MIC) fell in the range of 0.25 to 1 µg/mL (≈ 0.428 to 1.71 µM) with C. albicans ATCC 90028, 1.1 to 2 µg/mL (≈ 1.88 to 3.42 µM) in test [1] and 0.25 to 1 µg/mL (≈ 0.428 to 1.71 µM) in the test with C. krusei ATCC 6258. Moreover, the IC50 against Human ACC2 was in the range of 2 to 10 nM; at Fungal ACC2, 0.7 to 2 nM.

Consider `COc1ccc(F)cc1[C@H](Cn1c(=O)n([C@@]2(C)CCC(=O)N(C)C2)c(=O)c2c(C)c(-n3nccn3)sc21)OCCO` [Compound I-143, 3-((S)-1,3-dimethyl-6-oxopiperidin-3-yl)-1-((R)-2-(5-fluoro-2-methoxyphenyl)-2-(2-hydroxyethoxy)ethyl)-5-methyl-6-(2H-1,2,3-triazol-2-yl)thieno[2,3-d]pyrimidine-2,4(1H,3H)-dione], for which the MIC (in the test with C. albicans ATCC 90028; in test [1]; with C. krusei ATCC 6258) was 2.1 to 4 µg/mL (≈ 3.58 to 6.82 µM) in each case. Moreover, the IC50 against Human ACC2 was in the range of 2 to 10 nM; at Fungal ACC2, 0.7 to 2 nM.

Regarding `COc1ccc(F)cc1[C@H](Cn1c(=O)n([C@H]2CNC(=O)C2)c(=O)c2c(C)c(-n3nccn3)sc21)OCCO` [Compound I-89, 1-((R)-2-(5-fluoro-2-methoxyphenyl)-2-(2-hydroxy-ethoxy)ethyl)-5-methyl-3-((R)-5-oxopyrrolidin-3-yl)-6-(2H-1,2,3-triazol-2-yl)thieno[2,3-d]pyrimidine-2,4(1H, 3H)-dione], the MIC (in the test with C. albicans ATCC 90028; in test [1]; with C. krusei ATCC 6258) was 2.1 to 4 µg/mL (≈ 3.86 to 7.35 µM) throughout. Moreover, the IC50 against Human ACC2 was in the range of 2 to 10 nM; at Fungal ACC2, 0.7 to 2 nM.

On to `COc1ccc(F)cc1[C@H](Cn1c(=O)n([C@@H]2CCN(C)C2=O)c(=O)c2c(C)c(-n3nccn3)sc21)OC` [Compound I-170, 1-((R)-2-(5-fluoro-2-methoxyphenyl)-2-methoxyethyl)-5-methyl-3-((R)-1-methyl-2-oxopyrrolidin-3-yl)-6-(2H-1,2,3-triazol-2-yl)thieno[2,3-d]pyrimidine-2,4(1H,3H)-dione], for which the MIC (in the test with C. albicans ATCC 90028; in test [1]; in the test on C. krusei ATCC 6258) was 2.1 to 4 µg/mL (≈ 3.97 to 7.57 µM) in each case. Besides, the half-inhibitory concentration (IC50) at Human ACC2 fell in the range of 10 to 100 nM; at Fungal ACC2, 0.7 to 2 nM.

As for `COCCO[C@@H](Cn1c(=O)n(C2CCN(C)C2=O)c(=O)c2c(C)c(-n3nccn3)sc21)c1cc(F)ccc1OC` (stereo partly drawn) [Compound I-2, 1-((R)-2-(5-fluoro-2-methoxyphenyl)-2-(2-methoxy-ethoxy)ethyl)-5-methyl-3-(1-methyl-2-oxopyrrolidin-3-yl)-6-(2H-1,2,3-triazol-2-yl)thieno[2,3-d]pyrimidine-2,4(1H,3H)-dione], the minimum inhibitory concentration (MIC) (in the test with C. albicans ATCC 90028; in test [1]; in the test with C. krusei ATCC 6258) was 2.1 to 4 µg/mL (≈ 3.67 to 6.99 µM) each time. The 50% inhibitory concentration (IC50) was 10 to 100 nM against Human ACC2 and 2 to 10 nM at Fungal ACC2.

Take `COc1ccc(F)cc1[C@H](Cn1c(=O)n([C@@H]2CCNC2=O)c(=O)c2c(C)c(-n3nccn3)sc21)O[C@H]1C[C@@H](O)C1` [Compound I-184, 1-((R)-2-(5-fluoro-2-methoxyphenyl)-2-((1s, 3S)-3-hydroxycyclobutoxy)ethyl)-5-methyl-3-((R)-2-oxopyrrolidin-3-yl)-6-(2H-1-1,2,3-triazol-2-yl)thieno[2,3-d]pyrimidine-2,4(1H,3H)-dione]: the MIC (in the test on C. albicans ATCC 90028; in test [1]; in the test on C. krusei ATCC 6258) was 2.1 to 4 µg/mL (≈ 3.68 to 7.01 µM) throughout. Moreover, the half-inhibitory concentration (IC50) against Human ACC2 was in the range of 2 to 10 nM; on Fungal ACC2 it was 0.7 to 2 nM.

In the case of `COc1ccccc1[C@H](Cn1c(=O)n(C2CCN(C)C2=O)c(=O)c2c(C)c(-c3ncco3)sc21)OCCO` (stereo partly drawn) [Compound I-54, 1-((R)-2-(2-hydroxyethoxy)-2-(2-methoxyphenyl)ethyl)-5-methyl-3-(1-methyl-2-oxopyrrolidin-3-yl)-6-(oxazol-2-yl)thieno[2,3-d]pyrimidine-2,4(1H,3H)-dione], the minimum inhibitory concentration (MIC) (in the test on C. albicans ATCC 90028; in test [1]; with C. krusei ATCC 6258) was 2.1 to 4 µg/mL (≈ 3.88 to 7.4 µM) throughout. The figures for the 50% inhibitory concentration (IC50) at Human ACC2 and on Fungal ACC2 were 10 to 100 nM and 2 to 10 nM, respectively.

`COc1ccc(F)cc1[C@H](Cn1c(=O)n([C@H]2CCN(C)C2=O)c(=O)c2c(C)c(-n3cccn3)sc21)O[C@H]1CC[C@@H](O)CC1` [Compound I-182]: the MIC (in the test with C. albicans ATCC 90028; in test [1]; in the test on C. krusei ATCC 6258) was 2.1 to 4 µg/mL (≈ 3.43 to 6.54 µM) throughout. Further, the IC50 at Human ACC2 was 10 to 100 nM; on Fungal ACC2, 0.7 to 2 nM.

With `COCCO[C@@H](Cn1c(=O)n([C@]2(C)CCCNC2=O)c(=O)c2c(C)c(-n3nccn3)sc21)c1cc(F)ccc1OC` [Compound I-124, 1-((R)-2-(5-fluoro-2-methoxyphenyl)-2-(2-methoxy-ethoxy)ethyl)-5-methyl-3-((R)-3-methyl-2-oxopiperidin-3-yl)-6-(2H-1,2,3-triazol-2-yl)thieno[2,3-d]pyrimidine-2,4(1H,3H)-dione], the minimum inhibitory concentration (MIC) (in the test on C. albicans ATCC 90028; in test [1]; in the test with C. krusei ATCC 6258) was 2.1 to 4 µg/mL (≈ 3.58 to 6.82 µM) in each case. The IC50 fell in the range of 10 to 100 nM at Human ACC2 and 2 to 10 nM at Fungal ACC2.

On to `COCCO[C@@H](Cn1c(=O)n([C@@]2(C)CC(=O)N(C)C2)c(=O)c2c(C)c(-n3nccn3)sc21)c1cc(F)ccc1OC` [Compound I-122, 3-((S)-1,3-dimethyl-5-oxopyrrolidin-3-yl)-1-((R)-2-(5-fluoro-2-methoxyphenyl)-2-(2-methoxyethoxy)ethyl)-5-methyl-6-(2H-1,2,3-triazol-2-yl)thieno[2,3-d]pyrimidine-2.4(1H, 3H)-dione], for which the minimum inhibitory concentration (MIC) (with C. albicans ATCC 90028; in test [1]; in the test on C. krusei ATCC 6258) was 2.1 to 4 µg/mL (≈ 3.58 to 6.82 µM) each time. For the same compound, the IC50 against Human ACC2 lay in the range of 10 to 100 nM; at Fungal ACC2 it was 2 to 10 nM.

For `Cc1c(-n2nccn2)sc2c1c(=O)n([C@@H]1CCN(C)C1=O)c(=O)n2C[C@H](O[C@H]1CC[C@@H](O)CC1)c1cc(F)ccc1O` [Compound I-189, 1-((R)-2-(5-fluoro-2-hydroxyphenyl)-2-(((1s, 4S)-4-hydroxycyclohexyl)oxy)ethyl)-5-methyl-3-((R)-1-methyl-2-oxopyrrolidin-3-yl)-6-(2H-1,2,3-triazol-2-yl)thieno[2,3-d]pyrimidine-2,4(1H, 3H)-dione], the MIC (in the test on C. albicans ATCC 90028; in test [1]; in the test on C. krusei ATCC 6258) was 2.1 to 4 µg/mL (≈ 3.51 to 6.68 µM) throughout. For the same compound, the IC50 against Human ACC2 was in the range of 2 to 10 nM; at Fungal ACC2 it was 0.7 to 2 nM.

As to `COc1ccc(F)cc1[C@H](Cn1c(=O)n([C@@H]2CCCNC2=O)c(=O)c2c(C)c(-n3nccn3)sc21)O[C@H]1CC[C@@H](O)CC1` [Compound I-174, 1-((R)-2-(5-fluoro-2-methoxyphenyl)-2-(((1 s, 4S)-4-hydroxycyclohexyl)oxy)ethyl)-5-methyl-3-((R)-2-oxopiperidin-3-yl)-6-(2H-1,2,3-triazol-2-yl)thieno[2,3-d]pyrimidine-2,4(1H,3H)-dione], the figures for the MIC (in the test on C. albicans ATCC 90028; in test [1]; in the test with C. krusei ATCC 6258) were 0.25 to 1 µg/mL (≈ 0.408 to 1.63 µM), 1.1 to 2 µg/mL (≈ 1.8 to 3.26 µM) and 0.25 to 1 µg/mL (≈ 0.408 to 1.63 µM), respectively. Further, the concentration for half-maximal inhibition (IC50) was 2 to 10 nM at Human ACC2 and 0.7 to 2 nM at Fungal ACC2.

With `COc1ccc(F)cc1[C@H](Cn1c(=O)n([C@@H]2CCN(C(=O)C(C)C)C2)c(=O)c2c(C)c(-n3nccn3)sc21)OCCO` [Compound I-87, 1-((R)-2-(5-fluoro-2-methoxyphenyl)-2-(2-hydroxy-ethoxy)ethyl)-3-((R)-1-isobutyrylpyrrolidine-3-yl)-5-methyl-6-(2H-1,2,3-triazol-2-yl)thieno[2,3-d]pyrimidine-2,4(1H,3H)-dione], the MIC (in the test with C. albicans ATCC 90028; in test [1]; with C. krusei ATCC 6258) was 2.1 to 4 µg/mL (≈ 3.5 to 6.66 µM) in each case. The IC50 against Human ACC2 was 10 to 100 nM; at Fungal ACC2 it was 0.7 to 2 nM.

`COc1ccc(F)cc1[C@H](Cn1c(=O)n(C2CCNC2=O)c(=O)c2c(C)c(-n3nccn3)sc21)OCCO` (stereo partly drawn) [Compound I-5, 1-((R)-2-(5-fluoro-2-methoxyphenyl)-2-(2-hydroxyethoxy)ethyl)-5-methyl-3-(2-oxopyrrolidin-3-yl)-6-(2H-1,2,3-triazol-2-yl)thieno[2,3-d]pyrimidine-2,4(1H,3H)-dione]: the MIC (with C. albicans ATCC 90028; in test [1]; in the test with C. krusei ATCC 6258) was 2.1 to 4 µg/mL (≈ 3.86 to 7.35 µM) in each case. Moreover, the IC50 at Human ACC2 lay in the range of 2 to 10 nM; at Fungal ACC2, 0.7 to 2 nM.

Source of the values: US20190330224A1, “ACC INHIBITORS AND USES THEREOF” (Gilead Apollo, LLC, priority 2015, published 2019).
